Laboratory results published in a compilation of properties of binary mixtures (doi:10.1016/j.molliq.2016.09.077).

Assay: xn = mol fraction of the nth substance listed
Conditions: 100 kPa

CC[n+]1ccn(C)c1.O=S(=O)([N-]S(=O)(=O)C(F)(F)F)C(F)(F)F + CCOC(C)=O
Conditions | speed of sound [m/s] | viscosity [mPa·s]
298.15 K, x2 = 0 | 1240.2 | 32.49
298.15 K, x2 = 0.0986 | 1232.6 | 25
298.15 K, x2 = 0.1858 | 1225.5 | 20.15
298.15 K, x2 = 0.2977 | 1215.3 | 14.83
298.15 K, x2 = 0.3962 | 1203.4 | 10.88
298.15 K, x2 = 0.5051 | 1189.2 | 7.63
298.15 K, x2 = 0.5961 | 1180.3 | 5.44
298.15 K, x2 = 0.6909 | 1171.1 | 3.77
298.15 K, x2 = 0.7974 | 1158.2 | 2.24
298.15 K, x2 = 0.8979 | 1147.7 | 0.93
303.15 K, x2 = 0 | 1229.3 | 27.68
303.15 K, x2 = 0.0986 | 1221.4 | 21.28
303.15 K, x2 = 0.1858 | 1213.9 | 17.32
303.15 K, x2 = 0.5051 | 1175.9 | 6.47
303.15 K, x2 = 0.6909 | 1155.8 | 3.31
308.15 K, x2 = 0.0986 | 1210.4 | 18.31
308.15 K, x2 = 0.1858 | 1202.6 | 14.96
308.15 K, x2 = 0.3962 | 1178.5 | 8.3
308.15 K, x2 = 0.5051 | 1162.7 | 5.78
308.15 K, x2 = 0.5961 | 1151.7 | 4.15
308.15 K, x2 = 0.6909 | 1139.5 | 2.78
308.15 K, x2 = 0.7974 | 1123.4 | 1.63
308.15 K, x2 = 0.8979 | 1109 | 0.83
313.15 K, x2 = 0 | 1207.9 | 20.16
313.15 K, x2 = 0.0986 | 1199.5 | 15.97
313.15 K, x2 = 0.1858 | 1191.4 | 13.01
313.15 K, x2 = 0.2977 | 1179.8 | 9.91
313.15 K, x2 = 0.5961 | 1137.9 | 3.71
313.15 K, x2 = 0.6909 | 1124.4 | 2.48
313.15 K, x2 = 0.7974 | 1106.4 | 1.47
313.15 K, x2 = 0.8979 | 1089.8 | 0.8
318.15 K, x2 = 0 | 1197.3 | 17.48
318.15 K, x2 = 0.0986 | 1188.6 | 14
318.15 K, x2 = 0.2977 | 1168.3 | 8.8
318.15 K, x2 = 0.5961 | 1123.8 | 3.27
318.15 K, x2 = 0.6909 | 1109.4 | 2.3
318.15 K, x2 = 0.7974 | 1089.2 | 1.29
323.15 K, x2 = 0 | 1187 | 15.34
323.15 K, x2 = 0.0986 | 1178.9 | 12.36
323.15 K, x2 = 0.1858 | 1169.7 | 10.19
323.15 K, x2 = 0.2977 | 1156.8 | 7.87
323.15 K, x2 = 0.3962 | 1142.5 | 5.82
323.15 K, x2 = 0.5051 | 1124 | 3.9
323.15 K, x2 = 0.5961 | 1110 | 2.94
323.15 K, x2 = 0.7974 | 1071.9 | 1.16
323.15 K, x2 = 0.8979 | 1051.6 | 0.7

CCOC(C)=O + CC[n+]1ccn(C)c1.O=S(=O)([N-]S(=O)(=O)C(F)(F)F)C(F)(F)F
x1 = 1
Conditions | speed of sound [m/s] | viscosity [mPa·s]
298.15 K | 1140.8 | 0.42
308.15 K | 1096 | 0.38
313.15 K | 1073.7 | 0.36
318.15 K | 1051.7 | 0.35
323.15 K | 1029.5 | 0.33

CO + CC[n+]1ccn(C)c1.O=S(=O)([N-]S(=O)(=O)C(F)(F)F)C(F)(F)F
x1 = 1
Conditions | speed of sound [m/s] | viscosity [mPa·s]
303.15 K | 1086.9 | 0.51
313.15 K | 1054.5 | 0.45
323.15 K | 1022.5 | 0.41
